Assay results published in patent EP0580459B1, “Substituted Phenylimidazolidins, their use as medicaments and their pharmaceutical compositions containing them” (HOECHST MARION ROUSSEL, priority 1992, dated 1994).

How the values were obtained:
récepteur androgène = molecular target: T1, récepteur androgène (Rattus norvegicus, UniProt P15207); test: Relative binding affinity (ARL) for the androgen receptor: displacement of tritiated testosterone in prostate cytosol; parameters: species or system rats mâles Sprague. Dawley EOPS; details: Incubation 24 hours at 0°C; prostate cytosol of castrated rats; ARL=100 (CH)/(CX), testosterone = 100
T1 construct: Des aliquotes du surnageant obtenu (=cytosol), sont incubées 30 minutes et 24 heures à 0°C; from tissue; host or cells: prostate cytosol of castrated male Sprague-Dawley rats
T1 sequence (P15207 1-902): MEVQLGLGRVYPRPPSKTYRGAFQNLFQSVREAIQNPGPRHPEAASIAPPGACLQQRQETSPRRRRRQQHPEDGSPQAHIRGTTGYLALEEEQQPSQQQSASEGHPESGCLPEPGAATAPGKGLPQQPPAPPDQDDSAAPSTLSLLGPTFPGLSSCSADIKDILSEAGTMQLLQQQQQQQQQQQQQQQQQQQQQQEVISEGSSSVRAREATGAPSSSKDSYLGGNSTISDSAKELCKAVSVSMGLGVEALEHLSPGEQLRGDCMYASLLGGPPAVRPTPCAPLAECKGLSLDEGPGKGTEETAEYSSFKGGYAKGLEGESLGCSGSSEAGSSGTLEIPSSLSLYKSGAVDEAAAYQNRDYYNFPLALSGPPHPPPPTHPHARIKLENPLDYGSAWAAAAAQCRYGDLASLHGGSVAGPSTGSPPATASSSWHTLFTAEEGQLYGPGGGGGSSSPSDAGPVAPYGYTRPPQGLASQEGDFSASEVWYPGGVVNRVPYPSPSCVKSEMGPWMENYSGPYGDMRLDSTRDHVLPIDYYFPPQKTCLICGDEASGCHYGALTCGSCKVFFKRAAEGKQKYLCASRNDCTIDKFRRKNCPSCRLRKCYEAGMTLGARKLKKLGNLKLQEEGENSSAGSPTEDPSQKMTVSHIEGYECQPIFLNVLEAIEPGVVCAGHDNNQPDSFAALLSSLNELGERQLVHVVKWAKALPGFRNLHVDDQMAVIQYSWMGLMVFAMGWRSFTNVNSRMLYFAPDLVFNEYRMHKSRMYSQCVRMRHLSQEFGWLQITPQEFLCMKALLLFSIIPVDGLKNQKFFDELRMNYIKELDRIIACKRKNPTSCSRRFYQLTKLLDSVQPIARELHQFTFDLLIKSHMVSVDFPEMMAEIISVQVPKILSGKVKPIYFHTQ
Description: 1) Etude de l'affinité des produits de l'invention pour le récepteur androgène
Des rats mâles Sprague. Dawley EOPS de 180-200 g, castrés de 24 heures, sont sacrifiés, les prostates prélevées, pesées et homogénéisées à 0°C à l'aide d'un potter verre-verre, dans une solution tamponnée (Tris lOmM, saccharose 0,25M, PMSF (phénylméthanesulfonylfluoride) 0,1mM, Molybdate de sodium 20mM, HCl pH 7,4; auxquels on ajoute extemporanément 2mM de DTT (DL dithiothreitol), à raison de 1 g de tissu pour 8 ml de tampon.
L'homogénat est ensuite ultracentrifugé à 0°C, 30 minutes à 209 000 g.
Calcul de l'affinité relative de liaison (ARL).
On trace les 2 courbes suivantes : le pourcentage de l'hormone tritiée liée B/T en fonction du logarithme de la concentration de l'hormone de référence froide et B/T en fonction du logarithme de la concentration du produit froid testé. On détermine la droite d'équation I50=(B/Tmax + B/Tmin)/2. B/T max= % de l'hormone tritiée liée pour une incubation de cette hormone tritiée à la concentration (T). B/T min= % de l'hormone tritiée liée pour une incubation de cette hormone tritiée à la concentration (T) en présence d'un grand excès d'hormone froide (2500.10^-9M) .
Les intersections de la droite I50 et des courbes, permettent d'évaluer les concentrations de l'hormone de référence froide (CH) et du produit froid testé (CX) qui inhibent de 50 % la liaison de l'hormone tritiée sur le récepteur.

[1] = test system: ornithine décarboxylase rénale; test: Androgen / anti-androgen activity by assay of renal ornithine decarboxylase in castrated mice given testosterone propionate; type: in vivo, souris mâles SWISS; details: with testosterone propionate 3 mg/kg s.c., kidneys 20 hours after treatment, relative to controls given testosterone propionate only; for % d'inhibition de l'ODL Test A: Test A: percutaneous route, 1,5 mg/kg in 10 µl
Description: 2) Détermination de l'activité androgène ou anti-androgène des produits de l'invention à l'aide du dosage de l'ornithine décarboxylase.
- Protocole de traitement
20 heures après les traitements, les animaux sont sacrifiés, les reins prélevés, puis homogénéisés à 0°C , à l'aide d'un broyeur téflon-verre dans 10 volumes de tampon Tris-HCl 50 mM (pH 7,4) contenant 250 uM de phosphate de pyridoxal, 0,1 mM EDTA, et 5 mM de dithiothreitol. L'homogenat est ensuite centrifugé à 209000 g pendant 30 mn.
A 37°C, l'ornithine décarboxylase rénale transforme un mélange isotopique d'ornithine froide et d'ornithine tritiée en putrescine froide et putrescine tritiée.
La putrescine est ensuite recueillie sur des papiers sélectifs, échangeurs d'ions. Après séchage, l'excès d'ornithine tritiée et froide non transformée est éliminé, par 3 lavages d'ammoniaque 0,1 M. Les papiers sont séchés, puis la radioactivité est comptée après addition de scintillant Aqualite.
Les résultats sont exprimés en fmoles ([…]) de putrescine tritiée formée/heure/mg de protéines.
Test A : les produits sont administrés par voie percutanée à 1,5 mg/kg sous un volume de 10 µl. Test B : les produits sont administrés par voie orale à 1 mg/kg. Test C : les produits sont administrés par voie orale à 3 mg/kg.

Structure (SMILES)	ARL (affinité relative de liaison) (récepteur androgène)	% d'inhibition de l'ODL Test A [1] [%]	% d'inhibition de l'ODL Test B ([1]; Test B: oral route, 1 mg/kg) [%]	% d'inhibition de l'ODL Test C ([1]; Test C: oral route, 3 mg/kg) [%]
CC1(C)C(=O)N(c2ccc(C#N)c(C(F)(F)F)c2)C(=S)N1CCCCO [Exemple 4, 4-(4,4-diméthyl 3-(4-hydroxybutyl) 5-oxo 2-thioxo 1-imidazolidinyl) 2-(trifluorométhyl) benzonitrile]	300	78	–	–
CC1(C)C(=O)N(c2ccc(C#N)c(C(F)(F)F)c2)C(=O)N1CCCCO [Exemple 1, 4-(4,4-diméthyl 2,5-dioxo 3-(4-hydroxybutyl) 1-imidazolidinyl) 2-(trifluorométhyl) benzonitrile]	31	40	36	–
CC1(C)C(=O)N(c2ccc(C#N)c(C(F)(F)F)c2)C(=S)N1CCO [Exemple 2, 4-(4,4-diméthyl 3-(2-hydroxyéthyl) 5-oxo 2-thioxo 1-imidazolidinyl) 2-(trifluorométhyl) benzonitrile]	163	32	–	67
CC(C)N1C(=S)N(c2ccc(C#N)c(C(F)(F)F)c2)C(=O)C1(C)C [Exemple 6, 4-(4,4-diméthyl 3-(1-méthyléthyl) 5-oxo 2-thioxo 1-imidazolidinyl) 2-(trifluorométhyl) benzonitrile]	28	35	–	–
CC1(C)C(=O)N(c2ccc(C#N)c(C(F)(F)F)c2)C(=S)N1CCCO [Exemple 3, 4-(4,4-diméthyl 3-(3-hydroxypropyl) 5-oxo 2-thioxo 1-imidazolidinyl) 2-(trifluorométhyl) benzonitrile]	–	41	–	–
COCCN1C(=S)N(c2ccc(C#N)c(C(F)(F)F)c2)C(=O)C1(C)C [Exemple 5, 4-(4,4-diméthyl 3-(2-méthoxyéthyl) 5-oxo 2-thioxo 1-imidazolidinyl) 2-(trifluorométhyl) benzonitrile]	81	62	–	–
